Some test systems named below: A549; ACHN; HCT-116; HL-60; HOP-62; HT-29; IGROV-1; KM12; LOX IMVI; NCI-H522; OVCAR-5; OVCAR-8; SK-MEL-28; SR; SW-620; TK-10; UACC-257.
Experiment in all cases: inhibition of tumour cell growth, NCI panel, 48 h

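Growth conditions: 96-well plates. Treatment: test compound, 48 hours, 5 concentrations. Analysis: linear interpolation between bracketing concentrations; unreached endpoints set to highest concentration. Here, GI50 denotes the concentration required for 50% inhibition of growth.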 Active and inactive are the calls of the source. Cut-off read from the data, not from the text of the source: active = GI50 up to about 1.1 µM and inactive = higher. Where only a bound is given, the exact number is not on record here.

Regarding `CC1=C(SC#N)S(=O)(=O)N(c2ccccc2)C(C)=C1SC#N`, the GI50 is 40.7 µM (inactive) with A549; 44 µM (inactive) in the experiment on ACHN; 3.27 µM (inactive) in the experiment with HCT-116; 29 µM (inactive) in the experiment with HL-60; > 10 µM (inactive) in the experiment with HOP-62; > 100 µM (inactive) in the experiment with HT-29. For the same compound, the GI50 is 6.56 µM (inactive) in the experiment with IGROV-1; 60.4 µM (inactive) with KM12; 12.9 µM (inactive) with LOX IMVI; 18 µM (inactive) with NCI-H522; 39.4 µM (inactive) in the experiment with OVCAR-5; 15.1 µM (inactive) in the experiment with OVCAR-8. Moreover, the GI50 is 61.9 µM (inactive) in the experiment on SK-MEL-28; 24.4 µM (inactive) in the experiment with SR; 41.8 µM (inactive) in the experiment with SW-620; > 100 µM (inactive) in the experiment with TK-10; 32 µM (inactive) in the experiment with UACC-257.
For `O=C(NC12CC3CC(CC(C3)C1)C2)C(=O)c1c[nH]c2ccccc12`, the GI50 with A549 is 16.3 µM (inactive); with ACHN, 15.5 µM (inactive); in the experiment on HCT-116, 14.7 µM (inactive); in the experiment with HL-60, 15.5 µM (inactive); with HOP-62, 19.1 µM (inactive); with HT-29, 2.83 µM (inactive). The GI50 with IGROV-1 was 15.8 µM (inactive); with KM12, 13.9 µM (inactive); in the experiment on LOX IMVI, 13.1 µM (inactive); with NCI-H522 it was 16.3 µM (inactive); in the experiment with OVCAR-5, 17.9 µM (inactive); in the experiment on SK-MEL-28, 16.3 µM (inactive). Further, the GI50 is 17.8 µM (inactive) in the experiment with SR, 27 µM (inactive) in the experiment with TK-10 and 12.9 µM (inactive) in the experiment with UACC-257.
On to `O=C(Nc1ccc(Sc2ccc(/N=N/c3c(O)c(S(=O)(=O)O)cc4cc(S(=O)(=O)O)ccc34)cc2)cc1)c1ccc(/N=N/c2c(O)ccc3c(S(=O)(=O)O)cc(S(=O)(=O)O)cc23)cc1`, for which the GI50 in the experiment with A549 was 28.4 µM (inactive); with ACHN, 29.4 µM (inactive); in the experiment with HCT-116, 49.3 µM (inactive); in the experiment with HL-60 it was 10.3 µM (inactive); in the experiment on HOP-62 it was 87.3 µM (inactive); in the experiment with HT-29, 42.1 µM (inactive). For the same compound, the GI50 is 32.7 µM (inactive) in the experiment on IGROV-1; 39.9 µM (inactive) in the experiment with KM12; 15.5 µM (inactive) in the experiment on LOX IMVI; 13.4 µM (inactive) in the experiment on NCI-H522; 33.4 µM (inactive) in the experiment with OVCAR-5; 20.8 µM (inactive) in the experiment with OVCAR-8. The GI50 in the experiment on SK-MEL-28 is 48.1 µM (inactive); in the experiment with SR, 21.6 µM (inactive); with SW-620, 38.5 µM (inactive); in the experiment with TK-10, 60.8 µM (inactive); in the experiment with UACC-257 it was 11.2 µM (inactive).
With `CCOC(=O)C1Cc2ccc3c4c(ccc(c24)C1)CC(C(=O)OCC)C3`, the GI50 in the experiment with A549, in the experiment with ACHN, with HCT-116, with HL-60, in the experiment on HOP-62 and with HT-29 was > 100 µM (inactive) throughout. Also, the GI50 with IGROV-1, in the experiment with KM12, in the experiment on LOX IMVI, in the experiment with NCI-H522, with OVCAR-5 and in the experiment with OVCAR-8 was > 100 µM (inactive) in each case. Further, the GI50 with SK-MEL-28, in the experiment with SR, with SW-620, with TK-10 and in the experiment with UACC-257 was > 100 µM (inactive) throughout.
With `Cc1cc2occ(C)c(=O)c2c2c1OC(C)(C)S2`, the GI50 with A549 was > 100 µM (inactive); in the experiment with ACHN it was > 100 µM (inactive); in the experiment on HCT-116, > 100 µM (inactive); in the experiment on HL-60, 38.1 µM (inactive); with HOP-62, > 100 µM (inactive); in the experiment with HT-29, 97.9 µM (inactive). The GI50 in the experiment on IGROV-1 was > 100 µM (inactive); in the experiment on KM12 it was > 100 µM (inactive); with LOX IMVI it was > 100 µM (inactive); in the experiment with NCI-H522, 47.6 µM (inactive); in the experiment with OVCAR-5, > 100 µM (inactive); in the experiment on OVCAR-8, > 100 µM (inactive). Besides, the GI50 with SK-MEL-28 is > 100 µM (inactive); in the experiment with SR it was 65.9 µM (inactive); with SW-620 it was > 100 µM (inactive); with TK-10 it was > 100 µM (inactive); with UACC-257, > 100 µM (inactive).
Take `CCOC(=O)C1=C(Nc2ccccc2)SC/C1=N\NC(=O)Cc1ccccc1`: the GI50 in the experiment on A549, in the experiment with ACHN, in the experiment with HCT-116, in the experiment on HL-60, in the experiment with HOP-62 and in the experiment on HT-29 was > 100 µM (inactive) each time. Further, the GI50 with IGROV-1, with KM12, in the experiment on LOX IMVI, in the experiment on NCI-H522, with OVCAR-5 and in the experiment with OVCAR-8 was > 100 µM (inactive) in each case. For the same compound, the GI50 with SK-MEL-28, with SR, with SW-620, in the experiment on TK-10 and in the experiment with UACC-257 was > 100 µM (inactive) in each case.
In the case of `COc1cc2c(cc1OC)C1(c3ccccc3)ON=C(c3ccccc3)N1CS2` (stereo unspecified), the GI50 with A549 is > 100 µM (inactive); in the experiment with ACHN, > 100 µM (inactive); in the experiment with HCT-116, 28.7 µM (inactive); in the experiment with HL-60 it was 16.1 µM (inactive); in the experiment on HOP-62 it was > 100 µM (inactive); in the experiment with HT-29, 55.2 µM (inactive). Further, the GI50 in the experiment with IGROV-1, in the experiment on KM12, with LOX IMVI, in the experiment on NCI-H522, with OVCAR-5 and with SK-MEL-28 was > 100 µM (inactive) throughout. The GI50 is 23.6 µM (inactive) with SR, > 100 µM (inactive) in the experiment on SW-620, > 100 µM (inactive) in the experiment on TK-10 and > 100 µM (inactive) with UACC-257.
For `COc1cc2c(c(OC)c1OC)-c1ccc(SC)c(=O)cc1[C@@H](NCc1cccc(C#N)c1)CC2`, the GI50 is 0.0345 µM (active) in the experiment with A549; 0.047 µM (active) in the experiment on ACHN; 0.0173 µM (active) in the experiment with HCT-116; 0.0419 µM (active) in the experiment on HL-60; 0.0334 µM (active) with HOP-62; 0.0154 µM (active) in the experiment on HT-29. Moreover, the GI50 in the experiment with IGROV-1 is 0.057 µM (active); with KM12, 0.00528 µM (active); in the experiment with LOX IMVI it was 0.0184 µM (active); in the experiment with NCI-H522 it was 0.0142 µM (active); in the experiment on OVCAR-5, 0.037 µM (active); in the experiment with OVCAR-8, 0.0222 µM (active). Besides, the GI50 is 0.0221 µM (active) in the experiment with SK-MEL-28; 0.00414 µM (active) in the experiment on SR; 0.0132 µM (active) in the experiment on SW-620; 0.0841 µM (active) in the experiment with TK-10; 0.0448 µM (active) in the experiment with UACC-257.
`CCOC(=O)NC(=O)c1cn(CC(=O)NCC(=O)NCC(=O)NCCCN2CCN(CCCNC(=O)CNC(=O)CNC(=O)Cn3cc(C(=O)NC(=O)OCC)c(=O)[nH]c3=O)CC2)c(=O)[nH]c1=O`: the GI50 with A549, in the experiment on ACHN, in the experiment on HCT-116, in the experiment on HL-60, in the experiment on HOP-62 and with HT-29 was > 100 µM (inactive) throughout. The GI50 in the experiment with IGROV-1, in the experiment with KM12, in the experiment on LOX IMVI, in the experiment on NCI-H522, with OVCAR-5 and in the experiment on OVCAR-8 was > 100 µM (inactive) each time. Also, the GI50 in the experiment with SK-MEL-28, with SR, with SW-620, in the experiment on TK-10 and in the experiment with UACC-257 was > 100 µM (inactive) throughout.
`CCCCCCCCCCCCC(CC)CCCCC(=O)O` (stereo unspecified): the GI50 in the experiment on A549 was > 100 µM (inactive); in the experiment on ACHN, > 100 µM (inactive); with HCT-116, > 53.1 µM (inactive); in the experiment on HL-60 it was > 63.1 µM (inactive); in the experiment with HOP-62, > 100 µM (inactive); in the experiment with HT-29 it was > 65.6 µM (inactive). Also, the GI50 was > 100 µM (inactive) with IGROV-1; > 100 µM (inactive) with KM12; > 65.5 µM (inactive) in the experiment with LOX IMVI; > 100 µM (inactive) in the experiment with NCI-H522; > 100 µM (inactive) in the experiment with OVCAR-5; > 100 µM (inactive) with OVCAR-8. The GI50 in the experiment on SK-MEL-28 was > 100 µM (inactive); in the experiment on SR, > 53.2 µM (inactive); in the experiment on SW-620, > 61.2 µM (inactive); with TK-10, > 100 µM (inactive); in the experiment with UACC-257, > 100 µM (inactive).
On to `Cc1cc(O)nc(NNC(C#N)c2c(O)ccc3ccccc23)n1` (stereo unspecified), for which the GI50 is 2.9 µM (inactive) in the experiment on A549; 1.8 µM (inactive) in the experiment with ACHN; 2.43 µM (inactive) with HCT-116; 0.966 µM (active) in the experiment on HL-60; 6.5 µM (inactive) in the experiment with HOP-62; 17.3 µM (inactive) in the experiment on HT-29. The GI50 is 3.4 µM (inactive) in the experiment on IGROV-1; 4.29 µM (inactive) with KM12; 4.08 µM (inactive) in the experiment with LOX IMVI; 8.89 µM (inactive) with NCI-H522; 16.7 µM (inactive) in the experiment on OVCAR-5; 3.1 µM (inactive) in the experiment on OVCAR-8. In addition, the GI50 is 5.18 µM (inactive) in the experiment on SK-MEL-28; 2.7 µM (inactive) in the experiment with SR; 4.56 µM (inactive) in the experiment with SW-620; 9.06 µM (inactive) in the experiment with TK-10; 3.64 µM (inactive) with UACC-257.
For `COc1ccc(CN(O)C2C(CO)OC(n3cc(I)c(=O)[nH]c3=O)C2O)cc1` (stereo unspecified), the GI50 in the experiment on A549, in the experiment with ACHN, with HCT-116, with HL-60, with HOP-62 and with HT-29 was > 100 µM (inactive) in each case. For the same compound, the GI50 in the experiment on IGROV-1, in the experiment with KM12, in the experiment on LOX IMVI, in the experiment with NCI-H522, with OVCAR-5 and in the experiment on OVCAR-8 was > 100 µM (inactive) each time. Further, the GI50 in the experiment with SK-MEL-28, in the experiment with SR, with SW-620, with TK-10 and in the experiment on UACC-257 was > 100 µM (inactive) each time.

Source of the values: ChEMBL document CHEMBL1201862, “PubChem BioAssay data set” (2004).
